{
  "source": "patent US9555061B2",
  "about": "“Synthesis and analysis of compounds capable of inducing differentiation of human mesenchymal stems cells into hepatocytes” (National University Corporation Torrori University, priority 2011, dated 2017)",
  "type_in_all_cases": "cell-based, human",
  "key": {"[1]": {"test_system": "clinical specimen-derived mesenchymal stem cells", "test": "RT-PCR of hepatocyte differentiation marker in clinical specimen-derived mesenchymal stem cells", "conditions": "hexachlorophene 4 μM, HC-2 20 μM, PN-3-13 20 μM, IC-2 40 μM", "procedure": "(§1) A fresh bone marrow aspirate was collected under informed consent from a patient (a person) with osteoarthritis who underwent replacement arthroplasty at the Department of Orthopedic Surgery, Tottori University Hospital. This aspirate was subjected to density gradient centrifugation using ficoll (Amersham Biosciences) to separate bone marrow mononuclear cells (FIG. 31). These bone marrow mononuclear cells were suspended in 1 ml of Hanks' balanced salt solution (HBSS, Gibco, Life Technologies Corp.) supplemented with a 100-fold diluted APC-labeled anti-CD90 antibody, a 407-fold diluted PE-labeled anti-CD271 antibody, and 2% fetal bovine serum (FBS, Defined, Thermo Fisher Scientific Inc.), and were stained on ice for 30 min. A flow cytometer (MoFlo XDP, Beckman Coulter Inc.) was used to selectively separate mesenchymal stem cells. The resulting cells were cultured in Dulbecco's Modified Eagle's Medium (Low Glucose, Gibco, Life Technologies Corp.) containing 20% FBS, 100 U/ml penicillin, […] streptomycin (Nacalai Tesque), and 20 ng/ml basic fibroblast growth factor (TRANS GENIC INC., Ltd.) on a 35-mm dish under conditions at 37° C. and 5% CO2. The medium was changed every 4 days. After colonies were formed, the cells were detached using a 0.025% trypsin/1 mM EDTA solution (Nacalai Tesque), split on a 100-mm dish, and cultured under conditions at 37° C. and 5% CO2. Then, the cells which were kept 70 to 80% confluent were detached using trypsin treatment. These cells in one dish were divided into four dishes for passage.\nCells were seeded on a 6-well plate at a cell density of 1.8×10^4 cells/cm^2. This day was designated as day 0. At day 1 corresponding to the next day, the medium was changed to a medium containing any one of hexachlorophene (at a final concentration of 4 μM), HC-2 (at a final concentration of 20 μM), PN-3-13 (at a final concentration of 20 μM), IC-2 (at a final concentration of 40 μM), and 0.1% DMSO. […]"}, "[2]": {"test_system": "clinical specimen-derived mesenchymal stem cells", "test": "PAS staining in clinical specimen-derived mesenchymal stem cells", "conditions": "day 8, PN-3-13 20 μM, IC-2 40 μM", "procedure": "PAS staining was performed according to the following procedure. A cover glass that had been sterilized with 100% ethanol was placed on a 12-well plate. Cells were seeded on the cover glass at a cell density of 1.8×10^4 cells/cm^2. This day was designated as day 0. At day 1 corresponding to the next day, each medium was changed to a medium containing HC-2 (at a final concentration of 20 μM), PN-3-13 (at a final concentration of 20 μM), IC-2 (at a final concentration of 40 μM), or 0.1% DMSO. At day 4, the medium was changed in a manner similar to that at day 1, and the cells were cultured until day 8. At day 8, the cells were washed twice with PBS and were fixed with 4% paraformaldehyde for 30 min. As a negative control, α-amylase (Nacalai Tesque) at a final concentration of 10 mg/ml was added, and the cells were incubated therewith at 37° C. for 1 h to digest their glycogen. Subsequently, the cells were treated with 1% aqueous periodic acid for 5 min. Then, the cells were treated with a Schiff reagent (Nacalai Tesque) for 15 min to stain glycogen. After that, the cells were washed three times with aqueous sulfurous acid and were then washed three times with distilled water. The nuclei were stained with Mayer's Hematoxylin (MUTO PURE CHEMICALS CO., LTD.) for 1 min. […]"}, "[3]": {"test_system": "Wnt/β-catenin signaling pathway", "test": "Luciferase assay in sorted bone marrow-derived mesenchymal stem cells", "conditions": "40 or 45 μM; 8 days after the treatment", "procedure": "as §1, with “Human” for “A fresh bone marrow aspirate was collected under informed consent from a patient (a person) with osteoarthritis who underwent replacement arthroplasty at the Department of Orthopedic Surgery, Tottori University Hospital. This aspirate was subjected to density gradient centrifugation using ficoll (Amersham Biosciences) to separate”, “that had been purchased from Lonza Inc.” for “(FIG. 31). These bone marrow mononuclear cells”\nCells were seeded on a 96-well plate at a cell density of 5.0×10^3 cells/cm^2. […]"}},
  "data": [
    {"substance": "(6S,9aS)-6-phenyl-8-naphthalen-1-ylmethyl-4,7-dioxo-hexahydro-pyrazino[1,2-a]pyrimidine-1-carbocylic acid benzylamide [IC-2]", "values": [
      {"measurement": "expression of albumin", "setting": "[1]", "result": "induced"},
      {"measurement": "cellular glycogen accumulation compared with negative control (0.1% DMSO)", "setting": "[2]", "result": "apparent increase"},
      {"measurement": "inhibition of the Wnt/β-catenin signaling pathway (luciferase activity)", "setting": "[3]", "result": "significantly inhibited"}
    ]}
  ]
}
